From patent US11629171B2, “Beta-hairpin peptidomimetics” (POLYPHOR AG, priority 2017, dated 2023)
Converted amounts (≈) assume the structure as drawn. Where a SMILES comes first, the peptide text is derived from it. Bridges are numbered along the chain shown (N, C = ends). Roman numbers before positions name the chains, in order. [ ]: non-standard residue; d: D form. Thr(ol) = C[C@@H](O)[C@H](N)CO; Tle = CC(C)(C)[C@H](N)C(=O)O; NMeV = CN[C@H](C(=O)O)C(C)C; Hiv = CC(C)[C@H](O)C(=O)O; dDab = NCC[C@@H](N)C(=O)O; hSer = N[C@@H](CCO)C(=O)O; Orn = NCCC[C@H](N)C(=O)O; Dab = NCC[C@H](N)C(=O)O; Abu = CC[C@H](N)C(=O)O; Dap = NC[C@H](N)C(=O)O

Legend:
Format in all cases: cell-based
[1] = test system: human red blood cells (hRBC); assay: Hemolysis; details: red cells of human, 1 h, 200
Summary of the method: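 Percent lysis of human red cells was derived from OD540 of the supernatant, referenced to 2% Triton X-100, after a 1 h, 37° C incubation of 20% (v/v) cells with 200 μg/mL peptide.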

[2] = test system: Klebsiella pneumoniae 968733; details: 968733
Summary of the method: (§1)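 Broth microdilution per CLSI; MH-II (cation-adjusted) + 0.002% P-80 final; ~10^6 CFU/mL inoculum; 2-fold peptide series; 35° C, 18-20 h; MIC = no visible growth, μg/mL.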

[3] = test system: Escherichia coli ATCC 25922; details: ATCC 25922
Summary of the method: as §1

[4] = test system: Acinetobacter baumannii 872842; details: 872842
Summary of the method: as §1

[5] = test system: Acinetobacter baumannii DSM 30008; details: DSM 30008
Summary of the method: as §1

[6] = test system: Enterobacter cloacae 848840; details: 848840
Summary of the method: as §1

[7] = test system: Escherichia coli 926415; details: 926415
Summary of the method: as §1

[8] = test system: Klebsiella pneumoniae SSI #3010; details: SSI #3010
Summary of the method: as §1

[9] = test system: Pseudomonas aeruginosa ATCC 27853; details: ATCC 27853
Summary of the method: as §1

Row | Compound | MIC [2] [µg/mL] | MIC [3] [µg/mL] | MIC [4] [µg/mL] | MIC [5] [µg/mL] | MIC [6] [µg/mL] | MIC [7] [µg/mL] | MIC [8] [µg/mL] | MIC [9] [µg/mL] | Hemolysis at 200 μg/mL [1] [%]
1 | CC(C)C[C@@H]1NC(=O)[C@@H](CC(C)C)NC(=O)[C@H](CCN)NC(=O)[C@@H](NC(=O)[C@H](CN)NC(=O)[C@@H](NC(=O)[C@H](CCN)NC(=O)CC[C@@H]2NC(=O)[C@H](CO)NC(=O)[C@H](Cc3ccc(O)cc3)NC(=O)[C@@H](NC(=O)[C@@H](O)C(C)C)CCCNC(=O)[C@@H]([C@H](C)O)NC(=O)[C@H](C(C)(C)C)NC(=O)[C@H](CO)NC(=O)[C@H](Cc3c[nH]c4ccccc34)NC(=O)[C@H](CCO)NC(=O)[C@@H](CCN)NC2=O)[C@@H](C)O)CCNC(=O)[C@H]([C@@H](C)O)NC(=O)[C@H](CCN)NC(=O)[C@H](CCN)NC1=O [Ex. 24] (I: H-[Hiv][Orn]YSE[dDab][hSer]WS[Tle][dT] / II: [Dab]T[Dap][Dab][Dab][dL]L[Dab][Dab]T; lactam I:2-I:C, II:4-II:C; amide I:5-II:N) | 0.5 (≈ 0.219 µM) | 0.125 (≈ 0.0548 µM) | 1 (≈ 0.439 µM) | 0.125 (≈ 0.0548 µM) | 0.25 (≈ 0.11 µM) | 2 (≈ 0.877 µM) | 0.125 (≈ 0.0548 µM) | 0.25 (≈ 0.11 µM) | <1
2 | CC(=O)N[C@H](C(=O)N[C@H]1CSSC[C@@H](C(=O)N[C@@H](CO)C(N)=O)NC(=O)[C@H](C(C)(C)C)NC(=O)[C@H](CO)NC(=O)[C@H](Cc2c[nH]c3ccccc23)NC(=O)[C@H](CCN)NC(=O)[C@@H](CCN)NC(=O)[C@H](CCC(=O)N[C@@H](CCN)C(=O)N[C@H](C(=O)N[C@@H](CN)C(=O)N[C@H]2CCNC(=O)[C@H]([C@@H](C)O)NC(=O)[C@H](CCN)NC(=O)[C@H](CCN)NC(=O)[C@H](CC(C)C)NC(=O)[C@@H](CC(C)C)NC(=O)[C@H](CCN)NC2=O)[C@@H](C)O)NC(=O)[C@H](CO)NC(=O)[C@H](Cc2ccc(O)cc2)NC1=O)C(C)C [Ex. 133] (I: Ac-VCYSE[dDab][Dab]WS[Tle]CS-NH2 / II: [Dab]T[Dap][Dab][Dab][dL]L[Dab][Dab]T; disulfide I:2-I:11; amide I:5-II:N; lactam II:4-II:C) | 0.125 (≈ 0.0518 µM) | 0.03125 (≈ 0.013 µM) | 0.03125 (≈ 0.013 µM) | 0.0625 (≈ 0.0259 µM) | 0.25 (≈ 0.104 µM) | 0.0625 (≈ 0.0259 µM) | 0.125 (≈ 0.0518 µM) | 0.25 (≈ 0.104 µM) | 2
3 | CC[C@@H]1NC(=O)[C@@H](CC(C)C)NC(=O)[C@H](CCN)NC(=O)[C@@H](NC(=O)[C@H](CN)NC(=O)[C@@H](NC(=O)[C@H](CCN)NC(=O)CC[C@@H]2NC(=O)[C@H](CCN)NC(=O)[C@H](Cc3ccc(O)cc3)NC(=O)[C@@H](NC(=O)[C@@H](NC(C)=O)C(C)C)CSSC[C@@H](C(=O)N[C@H](C(N)=O)[C@@H](C)O)NC(=O)[C@H]([C@@H](C)CC)NC(=O)[C@H](CO)NC(=O)[C@H](Cc3c[nH]c4ccccc34)NC(=O)[C@H](CO)NC(=O)[C@@H](CCN)NC2=O)[C@@H](C)O)CCNC(=O)[C@H]([C@@H](C)O)NC(=O)[C@H](CCN)NC(=O)[C@H](CCN)NC1=O [Ex. 143] (I: Ac-VCY[Dab]E[dDab]SWSICT-NH2 / II: [Dab]T[Dap][Dab][Dab][dL][Abu][Dab][Dab]T; disulfide I:2-I:11; amide I:5-II:N; lactam II:4-II:C) | 0.0625 (≈ 0.0261 µM) | 0.03125 (≈ 0.013 µM) | 0.03125 (≈ 0.013 µM) | 0.0625 (≈ 0.0261 µM) | 0.0625 (≈ 0.0261 µM) | 0.125 (≈ 0.0521 µM) | 0.0625 (≈ 0.0261 µM) | 0.125 (≈ 0.0521 µM) | 2
4 | CC(=O)N[C@H](C(=O)N[C@H]1CCCNC(=O)[C@@H]([C@H](C)O)NC(=O)[C@H](C(C)C)NC(=O)[C@H](CO)NC(=O)[C@H](Cc2c[nH]c3ccccc23)NC(=O)[C@H](CCN)NC(=O)[C@@H](CCN)NC(=O)[C@H](CCC(=O)N[C@@H](CCN)C(=O)N[C@H](C(=O)N[C@@H](CN)C(=O)N[C@H]2CCNC(=O)[C@H]([C@@H](C)O)NC(=O)[C@H](CCN)NC(=O)[C@H](CCN)NC(=O)[C@H](CC(C)C)NC(=O)[C@@H](CC(C)C)NC(=O)[C@H](CCN)NC2=O)[C@@H](C)O)NC(=O)[C@H](CN)NC(=O)[C@H](Cc2ccc(O)cc2)NC1=O)C(C)C [Ex. 37] (I: Ac-V[Orn]Y[Dap]E[dDab][Dab]WSV[dT] / II: [Dab]T[Dap][Dab][Dab][dL]L[Dab][Dab]T; lactam I:2-I:C, II:4-II:C; amide I:5-II:N) | 2 (≈ 0.868 µM) | 0.25 (≈ 0.108 µM) | 1 (≈ 0.434 µM) | 0.125 (≈ 0.0542 µM) | 0.25 (≈ 0.108 µM) | 0.5 (≈ 0.217 µM) | 0.25 (≈ 0.108 µM) | 0.5 (≈ 0.217 µM) | 1
5 | CC(C)C[C@@H]1NC(=O)[C@@H](CC(C)C)NC(=O)[C@H](CCN)NC(=O)[C@@H](NC(=O)[C@H](CCN)NC(=O)[C@@H](NC(=O)[C@H](CCN)NC(=O)CC[C@@H]2NC(=O)[C@H](CCN)NC(=O)[C@H](Cc3ccc(O)cc3)NC(=O)[C@@H](NC(=O)[C@@H](O)C(C)C)CSSC[C@@H](C(=O)N[C@H](CO)[C@@H](C)O)NC(=O)[C@H](C(C)(C)C)NC(=O)[C@H](CCO)NC(=O)[C@H](Cc3c[nH]c4ccccc34)NC(=O)[C@H](CCO)NC(=O)[C@@H](CCN)NC2=O)[C@@H](C)O)CCNC(=O)[C@H]([C@@H](C)O)NC(=O)[C@H](CCN)NC(=O)[C@H](CCN)NC1=O [Ex. 81] (I: H-[Hiv]CY[Dab]E[dDab][hSer]W[hSer][Tle]C[Thr(ol)] / II: [Dab]T[Dab][Dab][Dab][dL]L[Dab][Dab]T; disulfide I:2-I:11; amide I:5-II:N; lactam II:4-II:C) | 0.125 (≈ 0.0518 µM) | 0.0625 (≈ 0.0259 µM) | 0.25 (≈ 0.104 µM) | 0.125 (≈ 0.0518 µM) | 0.125 (≈ 0.0518 µM) | 0.125 (≈ 0.0518 µM) | 0.0625 (≈ 0.0259 µM) | 0.125 (≈ 0.0518 µM) | <1

Further lines, with some results ahead:

Row | MIC [2] [µg/mL] | MIC [3] [µg/mL] | MIC [4] [µg/mL] | MIC [5] [µg/mL] | MIC [6] [µg/mL] | MIC [7] [µg/mL] | MIC [8] [µg/mL] | MIC [9] [µg/mL] | Compound | Hemolysis at 200 μg/mL [1] [%]
6 | 0.5 (≈ 0.218 µM) | 0.125 (≈ 0.0544 µM) | 0.125 (≈ 0.0544 µM) | 0.125 (≈ 0.0544 µM) | 0.25 (≈ 0.109 µM) | 1 (≈ 0.435 µM) | 0.125 (≈ 0.0544 µM) | 0.125 (≈ 0.0544 µM) | CN[C@H](C(=O)N[C@H]1CSSC[C@@H](C(N)=O)NC(=O)[C@H](C(C)(C)C)NC(=O)[C@H](CO)NC(=O)[C@H](Cc2c[nH]c3ccccc23)NC(=O)[C@H](CCN)NC(=O)[C@@H](CCN)NC(=O)[C@H](CCC(=O)N[C@@H](CCN)C(=O)N[C@H](C(=O)N[C@@H](CN)C(=O)N[C@H]2CCNC(=O)[C@H]([C@@H](C)O)NC(=O)[C@H](CCN)NC(=O)[C@H](CCN)NC(=O)[C@H](CC(C)C)NC(=O)[C@@H](CC(C)C)NC(=O)[C@H](CCN)NC2=O)[C@@H](C)O)NC(=O)[C@H](CN)NC(=O)[C@H](Cc2ccc(O)cc2)NC1=O)C(C)C [Example 9] (I: H-[NMeV]CY[Dap]E[dDab][Dab]WS[Tle]C-NH2 / II: [Dab]T[Dap][Dab][Dab][dL]L[Dab][Dab]T; disulfide I:2-I:11; amide I:5-II:N; lactam II:4-II:C) | <1
7 | 0.5 (≈ 0.209 µM) | 0.0625 (≈ 0.0261 µM) | 0.25 (≈ 0.105 µM) | 0.0625 (≈ 0.0261 µM) | 0.125 (≈ 0.0523 µM) | 0.25 (≈ 0.105 µM) | 0.0625 (≈ 0.0261 µM) | 0.125 (≈ 0.0523 µM) | CC(=O)N[C@H](C(=O)N[C@H]1CCNC(=O)CC[C@@H](C(=O)N[C@@H](CO)C(N)=O)NC(=O)[C@H](C(C)C)NC(=O)[C@H](CO)NC(=O)[C@H](Cc2c[nH]c3ccccc23)NC(=O)[C@H](CO)NC(=O)[C@@H](CCN)NC(=O)[C@H](CCC(=O)N[C@@H](CCN)C(=O)N[C@H](C(=O)N[C@@H](CN)C(=O)N[C@H]2CCNC(=O)[C@H]([C@@H](C)O)NC(=O)[C@H](CCN)NC(=O)[C@H](CCN)NC(=O)[C@H](CC(C)C)NC(=O)[C@@H](CC(C)C)NC(=O)[C@H](CCN)NC2=O)[C@@H](C)O)NC(=O)[C@H](CN)NC(=O)[C@H](Cc2ccc(O)cc2)NC1=O)C(C)C [Ex. 147] (I: Ac-V[Dab]Y[Dap]E[dDab]SWSVES-NH2 / II: [Dab]T[Dap][Dab][Dab][dL]L[Dab][Dab]T; lactam I:2-I:11, II:4-II:C; amide I:5-II:N) | <1
8 | 4 (≈ 1.62 µM) | 0.125 (≈ 0.0506 µM) | 0.5 (≈ 0.202 µM) | 0.125 (≈ 0.0506 µM) | 0.25 (≈ 0.101 µM) | 1 (≈ 0.405 µM) | 0.125 (≈ 0.0506 µM) | 0.25 (≈ 0.101 µM) | CC(C)C[C@@H]1NC(=O)[C@@H](CC(C)C)NC(=O)[C@H](CCN)NC(=O)[C@@H](NC(=O)[C@H](CCN)NC(=O)[C@@H](NC(=O)[C@H](CCN)NC(=O)CC[C@@H]2NC(=O)[C@@H](NC(=O)[C@H](Cc3ccc(O)cc3)NC(=O)[C@H](CCC(=O)O)NC(=O)[C@@H](O)C(C)C)CSSC[C@@H](C(=O)N[C@H](C(=O)N[C@@H](CCCCN)C(=O)N[C@H](CO)[C@@H](C)O)C(C)(C)C)NC(=O)[C@H](Cc3c[nH]c4ccccc34)NC(=O)[C@H]([C@@H](C)O)NC(=O)[C@@H](CCN)NC2=O)[C@@H](C)O)CCNC(=O)[C@H]([C@@H](C)O)NC(=O)[C@H](CCN)NC(=O)[C@H](CCN)NC1=O [Ex. 189] (I: H-[Hiv]EYCE[dDab]TWC[Tle]K[Thr(ol)] / II: [Dab]T[Dab][Dab][Dab][dL]L[Dab][Dab]T; disulfide I:4-I:9; amide I:5-II:N; lactam II:4-II:C) | <1
